The values that follow come from ChEMBL document CHEMBL1159199, “A new antiplatelet diarylheptanoid from Alpinia blepharocalyx” (1998).

Common to all, as to type: functional
The nature of test [1]: Antiplatelet activity in human whole blood assessed as inhibition of collagen-induced platelet aggregation at 100 ug/mL relative to control.
Test [2] in a line: Antiplatelet activity in human whole blood assessed as inhibition of ristocetin-induced platelet aggregation at 100 ug/mL relative to control.
Test [3] in a line: Antiplatelet activity in human whole blood assessed as inhibition of ADP-induced platelet aggregation at 100 ug/mL relative to control.
The nature of test [4]: Antiplatelet activity in human whole blood assessed as inhibition of arachidonic acid-induced platelet aggregation at 100 ug/mL relative to control.

Usually inhibition stands for the share of the control response that was lost under treatment. Regarding `O=C(/C=C(O)/C=C/c1ccc(O)cc1)CCc1ccc(O)cc1`, the inhibition at 100 µg/mL in test [1] was determined as 77.3%; in test [2], 62.8%; in test [3] it was 100%; in test [4], 100%.

Take `COc1cc(/C=C/c2ccc(O)cc2)oc(=O)c1`: the inhibition at 100 µg/mL was 86.9% in test [1], 100% in test [2], 100% in test [3] and 100% in test [4].

As for `COc1cc(O)cc2c1C(=O)CC(c1ccc(O)cc1)O2` (stereo unspecified), the inhibition at 100 µg/mL in test [1] was 57.7%; in test [2], 37.2%; in test [3] it was 14.5%; in test [4] it was 26.2%.

On to `O=Cc1ccc(O)cc1` [4-HYDROXYBENZALDEHYDE], for which the inhibition at 100 µg/mL in test [1] amounted to 23.6%; in test [2], 11%; in test [3] it was 39.8%; in test [4] it was 5.4%.

Turning to `O=C(/C=C/c1ccc(O)cc1)CC(=O)/C=C/c1ccc(O)cc1` [BISDEMETHOXYCURCUMIN], the inhibition at 100 µg/mL in test [1] worked out at 76.3%; in test [2], 38.3%; in test [3], 35.4%; in test [4], 46.8%.

In the case of `COc1cc(O)cc(O)c1C(=O)/C=C/c1ccccc1` [CARDAMOMIN], the inhibition at 100 µg/mL in test [1] was found to be 56%; in test [2] it was 0%; in test [3] it was 62.9%; in test [4], 100%.

In the case of `COc1cc(/C=C/c2ccccc2)oc(=O)c1` [DESMETHOXYYANGONIN], the inhibition at 100 µg/mL in test [1] worked out at 48.9%; in test [2], 33.3%; in test [3] it was 43.8%; in test [4], 100%.

Take `COc1cc(O)cc(O)c1C(=O)/C=C/c1ccc(O)cc1` [HELICHRYSETIN]: the inhibition at 100 µg/mL in test [1] stood at 32.3%; in test [2] it was 63.8%; in test [3], 48.9%; in test [4] it was 100%.

As to `COc1ccc2c(c1)c(CC(=O)O)c(C)n2C(=O)c1ccc(Cl)cc1` [INDOMETHACIN], the inhibition at 100 µg/mL stood at 71.1% in test [1], 52.1% in test [2], 36.7% in test [3] and 100% in test [4].
